In ChEMBL document CHEMBL1143467, “Synthesis of potent and selective serotonin 5-HT1B receptor ligands” (Bioorg Med Chem Lett, 2005):

Key:
[1] = target: T1, Muscarinic acetylcholine receptor M2 (Homo sapiens, UniProt P08172); experiment: Affinity towards cloned Muscarinic acetylcholine receptor M2
T1 sequence (P08172 whole entry): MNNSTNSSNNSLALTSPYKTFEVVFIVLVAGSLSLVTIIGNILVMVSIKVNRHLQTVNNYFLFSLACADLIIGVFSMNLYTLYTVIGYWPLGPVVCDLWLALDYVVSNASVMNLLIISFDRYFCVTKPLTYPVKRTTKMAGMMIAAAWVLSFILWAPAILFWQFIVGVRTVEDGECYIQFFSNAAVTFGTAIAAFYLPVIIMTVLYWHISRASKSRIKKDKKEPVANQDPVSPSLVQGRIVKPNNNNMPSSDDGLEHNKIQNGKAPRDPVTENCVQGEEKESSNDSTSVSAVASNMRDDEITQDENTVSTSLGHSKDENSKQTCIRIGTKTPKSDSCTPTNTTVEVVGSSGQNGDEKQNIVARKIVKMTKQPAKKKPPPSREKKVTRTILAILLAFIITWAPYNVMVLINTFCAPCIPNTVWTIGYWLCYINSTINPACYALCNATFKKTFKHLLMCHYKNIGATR

[2] = target: Muscarinic acetylcholine receptor M3 (Homo sapiens, UniProt P20309); experiment: Affinity towards cloned Muscarinic acetylcholine receptor M3
[3] = target: T2, Muscarinic acetylcholine receptor M5 (Homo sapiens, UniProt P08912); experiment: Affinity towards cloned Muscarinic acetylcholine receptor M5
T2 sequence (P08912 whole entry): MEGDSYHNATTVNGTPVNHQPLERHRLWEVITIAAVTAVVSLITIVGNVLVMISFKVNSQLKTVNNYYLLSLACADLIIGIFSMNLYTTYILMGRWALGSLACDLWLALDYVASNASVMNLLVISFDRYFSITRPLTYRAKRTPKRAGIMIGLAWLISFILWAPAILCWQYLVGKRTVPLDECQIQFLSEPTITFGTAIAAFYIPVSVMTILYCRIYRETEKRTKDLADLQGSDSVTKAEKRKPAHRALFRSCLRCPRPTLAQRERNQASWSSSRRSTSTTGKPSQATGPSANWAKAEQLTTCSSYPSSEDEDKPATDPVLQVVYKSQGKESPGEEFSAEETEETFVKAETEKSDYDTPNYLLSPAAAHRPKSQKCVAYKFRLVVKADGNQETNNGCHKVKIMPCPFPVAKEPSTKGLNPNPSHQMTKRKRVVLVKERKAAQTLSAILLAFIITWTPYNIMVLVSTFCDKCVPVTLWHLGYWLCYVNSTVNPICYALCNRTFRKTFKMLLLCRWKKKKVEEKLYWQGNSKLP

[4] = target: 5-hydroxytryptamine receptor 1D (Homo sapiens, UniProt P28221); experiment: In vitro binding affinity towards cloned human 5-HT1D receptor using [3H]5-carboximidotryptamine as radioligand
D(1A) dopamine receptor = D(1A) dopamine receptor (Homo sapiens, UniProt P21728); experiment: Affinity towards cloned Dopamine receptor D1
D(2) dopamine receptor = D(2) dopamine receptor (Homo sapiens, UniProt P14416); experiment: Affinity towards cloned Dopamine receptor D2
[5] = target: Kappa-type opioid receptor (Homo sapiens, UniProt P41145); experiment: Affinity towards cloned Opioid receptor kappa 1
[6] = Affinity towards cloned Nicotinic acetylcholine receptor
[7] = target: T3, 5-hydroxytryptamine receptor 1A (Homo sapiens, UniProt P08908); experiment: Affinity towards cloned human 5-hydroxytryptamine 1A receptor
T3 sequence (P08908 whole entry): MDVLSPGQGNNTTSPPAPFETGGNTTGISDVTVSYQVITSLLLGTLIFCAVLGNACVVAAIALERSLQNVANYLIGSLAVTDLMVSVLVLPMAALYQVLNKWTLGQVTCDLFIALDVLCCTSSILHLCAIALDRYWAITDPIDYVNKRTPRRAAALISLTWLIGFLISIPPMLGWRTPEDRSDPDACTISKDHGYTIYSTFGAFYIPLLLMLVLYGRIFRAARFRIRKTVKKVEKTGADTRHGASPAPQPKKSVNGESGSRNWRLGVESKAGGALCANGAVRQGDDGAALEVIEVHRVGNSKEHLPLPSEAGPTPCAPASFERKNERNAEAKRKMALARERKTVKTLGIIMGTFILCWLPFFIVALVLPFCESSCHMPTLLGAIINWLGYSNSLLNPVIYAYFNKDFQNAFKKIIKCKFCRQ

5-hydroxytryptamine receptor 1D, sequence (P28221 whole entry): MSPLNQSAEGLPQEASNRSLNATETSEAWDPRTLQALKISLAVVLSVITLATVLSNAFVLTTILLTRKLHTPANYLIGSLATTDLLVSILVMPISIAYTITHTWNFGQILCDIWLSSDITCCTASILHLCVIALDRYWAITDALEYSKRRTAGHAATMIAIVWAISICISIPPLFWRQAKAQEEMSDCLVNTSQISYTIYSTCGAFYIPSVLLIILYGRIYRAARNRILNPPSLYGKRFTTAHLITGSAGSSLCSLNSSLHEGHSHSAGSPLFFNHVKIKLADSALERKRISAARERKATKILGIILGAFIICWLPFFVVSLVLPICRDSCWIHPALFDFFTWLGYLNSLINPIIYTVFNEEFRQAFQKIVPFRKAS
Muscarinic acetylcholine receptor M3, sequence (P20309 whole entry): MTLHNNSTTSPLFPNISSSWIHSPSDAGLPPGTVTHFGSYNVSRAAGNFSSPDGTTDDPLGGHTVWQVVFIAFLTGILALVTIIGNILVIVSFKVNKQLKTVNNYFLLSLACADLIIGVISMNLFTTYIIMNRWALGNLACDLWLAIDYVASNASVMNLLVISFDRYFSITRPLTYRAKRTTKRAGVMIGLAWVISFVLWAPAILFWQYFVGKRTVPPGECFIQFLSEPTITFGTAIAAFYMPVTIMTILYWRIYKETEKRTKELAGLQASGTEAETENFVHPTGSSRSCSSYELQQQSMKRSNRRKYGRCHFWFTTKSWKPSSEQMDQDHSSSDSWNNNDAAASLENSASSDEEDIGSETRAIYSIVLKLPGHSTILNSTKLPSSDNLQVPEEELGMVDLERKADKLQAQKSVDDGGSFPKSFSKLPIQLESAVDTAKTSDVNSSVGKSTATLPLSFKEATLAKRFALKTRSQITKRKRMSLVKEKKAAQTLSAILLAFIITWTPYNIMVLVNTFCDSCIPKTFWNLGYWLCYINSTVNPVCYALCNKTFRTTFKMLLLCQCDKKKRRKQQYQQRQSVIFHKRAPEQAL
D(1A) dopamine receptor, sequence (P21728 whole entry): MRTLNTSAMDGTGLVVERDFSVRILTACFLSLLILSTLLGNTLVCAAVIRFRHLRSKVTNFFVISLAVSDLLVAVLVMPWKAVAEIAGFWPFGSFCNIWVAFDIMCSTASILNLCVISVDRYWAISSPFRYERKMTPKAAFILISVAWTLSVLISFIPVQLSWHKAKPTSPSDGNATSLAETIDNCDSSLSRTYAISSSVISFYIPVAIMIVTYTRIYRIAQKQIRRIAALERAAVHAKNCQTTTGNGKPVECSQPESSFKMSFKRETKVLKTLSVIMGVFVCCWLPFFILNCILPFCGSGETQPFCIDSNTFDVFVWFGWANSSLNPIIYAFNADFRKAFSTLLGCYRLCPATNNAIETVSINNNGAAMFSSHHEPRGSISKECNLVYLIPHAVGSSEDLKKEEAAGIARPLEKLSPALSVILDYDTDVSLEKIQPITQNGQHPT
Kappa-type opioid receptor, sequence (P41145 whole entry): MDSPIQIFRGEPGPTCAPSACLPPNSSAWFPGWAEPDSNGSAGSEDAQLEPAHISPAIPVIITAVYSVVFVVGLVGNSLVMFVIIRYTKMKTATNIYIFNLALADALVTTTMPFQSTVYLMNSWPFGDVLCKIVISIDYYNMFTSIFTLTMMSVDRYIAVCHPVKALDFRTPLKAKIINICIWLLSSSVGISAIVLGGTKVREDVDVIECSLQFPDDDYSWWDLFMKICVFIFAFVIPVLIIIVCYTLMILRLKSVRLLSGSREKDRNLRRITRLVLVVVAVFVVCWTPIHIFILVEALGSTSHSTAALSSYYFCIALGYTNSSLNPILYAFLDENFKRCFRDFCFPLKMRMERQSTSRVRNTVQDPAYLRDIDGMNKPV
D(2) dopamine receptor, sequence (P14416 whole entry): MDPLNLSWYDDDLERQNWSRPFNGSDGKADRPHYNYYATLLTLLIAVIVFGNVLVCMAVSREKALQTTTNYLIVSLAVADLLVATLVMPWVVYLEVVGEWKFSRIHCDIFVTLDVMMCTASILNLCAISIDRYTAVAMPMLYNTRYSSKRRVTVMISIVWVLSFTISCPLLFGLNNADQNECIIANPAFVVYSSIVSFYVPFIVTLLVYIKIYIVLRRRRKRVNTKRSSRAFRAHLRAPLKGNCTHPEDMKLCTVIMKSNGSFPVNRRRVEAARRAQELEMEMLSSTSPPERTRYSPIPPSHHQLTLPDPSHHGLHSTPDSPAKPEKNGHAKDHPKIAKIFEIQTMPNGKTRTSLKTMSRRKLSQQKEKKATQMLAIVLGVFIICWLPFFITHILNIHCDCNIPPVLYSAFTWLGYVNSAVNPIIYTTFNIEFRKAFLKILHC

Ki [1] | Ki [2] | Ki [3] | Ki [4] | Ki (D(1A) dopamine receptor) | Ki (D(2) dopamine receptor) | Ki [5] | Ki [6] | Ki [7] | SMILES
> 10 µM | > 10 µM | > 10 µM | 0.103 µM | > 10 µM | > 10 µM | > 10 µM | > 10 µM |  | COc1ccc(NC(=O)N2CCN(c3ccccc3F)CC2)cc1N1CCN(C)CC1
> 10 µM | > 10 µM | > 10 µM | 0.329 µM | > 10 µM | > 10 µM | > 10 µM | > 10 µM |  | COc1ccc(NC(=O)N2CCN(c3ccc(SC)cc3)CC2)cc1N1CCN(C)CC1
> 10 µM | > 10 µM | > 10 µM | 0.0347 µM | > 10 µM | > 10 µM | > 10 µM | > 10 µM |  | COc1ccc(NC(=O)N2CCN(c3ccccc3Cl)CC2)cc1N1CCN(C)CC1
> 10 µM | > 10 µM | > 10 µM | 0.0154 µM | > 10 µM | > 10 µM | > 10 µM | > 10 µM |  | COc1ccccc1N1CCC(C(=O)Nc2ccc(OC)c(N3CCN(C)CC3)c2)CC1
> 10 µM | > 10 µM | > 10 µM | 0.00651 µM | > 10 µM | > 10 µM | > 10 µM | > 10 µM |  | COc1ccc(NC(=O)N2CCN(c3ccc(Cl)cc3)CC2)cc1N1CCN(C)CC1
> 10 µM | > 10 µM | > 10 µM | 0.209 µM | > 10 µM | > 10 µM | > 10 µM | > 10 µM |  | COc1ccc(NC(=O)N2CCN(c3ccc(-c4ccccc4)cc3)CC2)cc1N1CCN(C)CC1
> 10 µM | > 10 µM | > 10 µM |  | > 10 µM | > 10 µM | > 10 µM | > 10 µM | 0.07 µM | COc1ccc(NC(=O)c2ccc(-c3ccc(-c4noc(C)n4)cc3C)cc2)cc1N1CCN(C)CC1 [GR-127935]
> 10 µM | > 10 µM | > 10 µM | 0.345 µM | > 10 µM | > 10 µM | > 10 µM | > 10 µM |  | COc1ccc(NC(=O)N2CCN(c3ccc(C(F)(F)F)cc3)CC2)cc1N1CCN(C)CC1
> 10 µM | > 10 µM | > 10 µM | 0.168 µM | > 10 µM | > 10 µM | > 10 µM | > 10 µM |  | COc1ccc(NC(=O)N2CCN(c3ccc(F)cc3)CC2)cc1N1CCN(C)CC1
